What follows are molecules tested against T1, Met kinase (Homo sapiens, UniProt P08581) (assay: Met kinase inhibition (enzyme assay), flashplate method).
T1 construct: 6His (N); purchased Upstate 14-526; host or cells: insect cells (Sf21; S. frugiperda), baculovirus
Type: biochemical
Protocol: Flashplate Method (Met Kinase)
The test plates used are 96-well Flashplate® microtitre plates from Perkin Elmer (Cat. No. SMP200). The components of the kinase reaction described below are pipetted into the assay plate. The Met kinase and the substrate poly Ala-Glu-Lys-Tyr, (PAGLT, 6:2:5:1), are incubated for 3 hrs at room temperature with radioactively labelled ^33P-ATP in the presence and absence of test substances in a total volume of 100 μl. The reaction is terminated using 150 μl of a 60 mM EDTA solution. After incubation for a further 30 min at room temperature, the supernatants are filtered off with suction, and the wells are washed three times with 200 μl of 0.9% NaCl solution each time. The measurement of the bound radioactivity is carried out by means of a scintillation measuring instrument (Topcount NXT, Perkin-Elmer).
The full value used is the inhibitor-free kinase reaction. This should be approximately in the range 6000-9000 cpm. The pharmacological zero value used is staurosporin in a final concentration of 0.1 mM. The inhibitory values (IC50) are determined using the RS1_MTS program.
Kinase reaction conditions per well: • 30 μl of assay buffer • 10 μl of substance to be tested in assay buffer with 10% of DMSO • 10 μl of ATP (final concentration 1 μM cold, 0.35 μCi of ^33P-ATP) • 50 μl of Met kinase/substrate mixture in assay buffer; (10 ng of enzyme/well, 50 ng of pAGLT/well)
Assay Buffer: • 50 mM HEPES • 3 mM magnesium chloride • 3 μM sodium orthovanadate • 3 mM manganese(II) chloride • 1 mM dithiothreitol (DTT) • pH=7.5 (to be set using sodium hydroxide)

T1 sequence (P08581 974-1390 limits assumed): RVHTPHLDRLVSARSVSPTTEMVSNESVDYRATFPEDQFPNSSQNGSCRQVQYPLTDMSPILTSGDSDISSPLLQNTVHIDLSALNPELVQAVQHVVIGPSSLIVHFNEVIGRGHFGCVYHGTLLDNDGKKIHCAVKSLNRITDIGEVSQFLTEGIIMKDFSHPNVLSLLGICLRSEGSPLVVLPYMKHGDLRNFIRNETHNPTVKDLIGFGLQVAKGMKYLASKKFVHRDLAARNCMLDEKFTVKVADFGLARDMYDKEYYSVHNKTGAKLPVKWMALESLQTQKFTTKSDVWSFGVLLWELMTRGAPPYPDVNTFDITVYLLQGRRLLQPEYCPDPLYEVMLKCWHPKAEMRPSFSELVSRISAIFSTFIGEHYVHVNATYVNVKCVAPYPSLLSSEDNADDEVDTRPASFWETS

IC50, 0.01 to 1 µM:
CC(=O)Nc1cccc(Cn2nc(-c3cccc(O)c3)ccc2=O)c1 [A2, N-{3-[3-(3-hydroxyphenyl)-6-oxo-6H-pyridazin-1-ylmethyl]phenyl}acetamide]
CCOC(=O)Nc1cccc(Cn2nc(-c3ccc(Cl)cc3)ccc2=O)c1 [A3, ethyl {3-[3-(4-chlorophenyl)-6-oxo-6H-pyridazin-1-ylmethyl]phenyl}carbamate]
COc1ccc(-c2ccc(=O)n(Cc3cccc(NC(C)=O)c3)n2)cc1OC [A4]
CCOC(=O)Nc1cccc(Cn2nc(-c3ccc(F)cc3)ccc2=O)c1 [A5]
CCOC(=O)Nc1cccc(Cn2nc(-c3cccc(Br)c3)ccc2=O)c1 [A6]
CC(=O)Nc1cccc(Cn2nc(-c3ccc(F)cc3)ccc2=O)c1 [A7]
CCOC(=O)Nc1cccc(Cn2nc(-c3ccccc3)ccc2=O)c1 [A9]
CCOC(=O)Nc1cccc(Cn2nc(-c3cccc(Cl)c3)ccc2=O)c1 [A10]
O=c1ccc(-c2ccc(F)cc2)nn1Cc1ccc2c(c1)OCO2 [A12]
O=c1ccc(-c2ccc(F)cc2)nn1Cc1ccc2nsnc2c1 [A14]
CN(C)CCCOC(=O)Nc1cccc(Cn2nc(-c3ccc(Cl)cc3)ccc2=O)c1 [A15, 3-dimethylaminopropyl {3-[3-(4-chlorophenyl)-6-oxo-6H-pyridazin-1-ylmethyl]phenyl}carbamate]
CN(C)CCCOC(=O)Nc1cccc(Cn2nc(-c3cccc(Cl)c3)ccc2=O)c1 [A17]
CCNC(=O)Nc1cccc(Cn2nc(-c3ccc(F)cc3)ccc2=O)c1 [A18, 1-ethyl-3-{3-[3-(4-fluorophenyl)-6-oxo-6H-pyridazin-1-ylmethyl]phenyl}urea]
CCOC(=O)Nc1cccc(Cn2nc(-c3cccs3)ccc2=O)c1 [A19]
CCNC(=O)Nc1cccc(Cn2nc(-c3cccc(Cl)c3)ccc2=O)c1 [A20]
CCOC(=O)Nc1cccc(Cn2nc(-c3cccc(F)c3)ccc2=O)c1 [A38]
CN(C)CCCOC(=O)Nc1cccc(Cn2nc(-c3cccc(C#N)c3)ccc2=O)c1 [A61, 3-Dimethylaminopropyl {3-[3-(3-cyanophenyl)-6-oxo-6H-pyridazin-1-ylmethyl]phenyl}carbamate]
O=C(Nc1cccc(Cn2nc(-c3cccs3)ccc2=O)c1)OCCCN1CCOCC1 [A71, 3-Morpholin-4-ylpropyl [3-(6-oxo-3-thiophen-2-yl-6H-pyridazin-1-ylmethyl)phenyl]carbamate]
O=C(Nc1cccc(Cn2nc(-c3cc(F)cc(F)c3)ccc2=O)c1)OCCCN1CCCC1 [A74, 3-Pyrrolidin-1-ylpropyl {3-[3-(3,5-difluorophenyl)-6-oxo-6H-pyridazin-1-ylmethyl]phenyl}carbamate]
COCCCOC(=O)Nc1cccc(Cn2nc(-c3cc(F)cc(F)c3)ccc2=O)c1 [A75, 3-Methoxypropyl {3-[3-(3,5-difluorophenyl)-6-oxo-6H-pyridazin-1-ylmethyl]phenyl}carbamate]
O=C(Nc1cccc(Cn2nc(-c3cc(F)c(F)c(F)c3)ccc2=O)c1)OCCCN1CCOCC1 [A78, 3-Morpholin-4-ylpropyl {3-[6-oxo-3-(3,4,5-trifluorophenyl)-6H-pyridazin-1-ylmethyl]phenyl}carbamate]
O=C(Nc1cccc(Cn2nc(-c3ccc(F)c(F)c3)ccc2=O)c1)OCCN1CCOCC1 [A81, 2-Morpholin-4-ylethyl {3-[3-(3,4-difluorophenyl)-6-oxo-6H-pyridazin-1-ylmethyl]phenyl}carbamate]
N#Cc1cccc(-c2ccc(=O)n(Cc3cccc(NC(=O)OCCCN4CCOCC4)c3)n2)c1 [A88, 3-Morpholin-4-ylpropyl{3-[3-(3-cyanophenyl)-6-oxo-6H-pyridazin-1-ylmethyl]phenyl}carbamate]
CN1CCN(CCOC(=O)Nc2cccc(Cn3nc(-c4ccc(F)c(F)c4)ccc3=O)c2)CC1 [A92, 2-(4-Methylpiperazin-1-yl)ethyl {3-[3-(3,4-difluorophenyl)-6-oxo-6H-pyridazin-1-ylmethyl]phenyl}carbamate]
O=C(Nc1cccc(Cn2nc(-c3cc(F)c(F)c(F)c3)ccc2=O)c1)OCCN1CCOCC1 [A95, 2-Morpholin-4-ylethyl {3-[6-oxo-3-(3,4,5-trifluorophenyl)-6H-pyridazin-1-ylmethyl]phenyl}carbamate]
CN1CCN(CCCOC(=O)Nc2cccc(Cn3nc(-c4cc(F)c(F)c(F)c4)ccc3=O)c2)CC1 [A101, 3-(4-Methylpiperazin-1-yl)propyl {3-[6-oxo-3-(3,4,5-trifluorophenyl)-6H-pyridazin-1-ylmethyl]phenyl}carbamate]
CN1CCN(CCCCOC(=O)Nc2cccc(Cn3nc(-c4cc(F)cc(F)c4)ccc3=O)c2)CC1 [A103, 4-(4-Methylpiperazin-1-yl)butyl {3-[3-(3,5-difluorophenyl)-6-oxo-6H-pyridazin-1-ylmethyl]phenyl}carbamate]
CN1CCCC1CCOC(=O)Nc1cccc(Cn2nc(-c3cc(F)cc(F)c3)ccc2=O)c1 (stereo not shown) [A105, 2-(1-Methylpyrrolidin-2-yl)ethyl {3-[3-(3,5-difluorophenyl)-6-oxo-6H-pyridazin-1-ylmethyl]phenyl}carbamate]
CN1CCCC(COC(=O)Nc2cccc(Cn3nc(-c4cc(F)cc(F)c4)ccc3=O)c2)C1 (stereo not shown) [A106, 1-Methylpiperidin-3-ylmethyl {3-[3-(3,5-difluorophenyl)-6-oxo-6H-pyridazin-1-ylmethyl]phenyl}carbamate]
CN1CCN(CCCOC(=O)Nc2cccc(Cn3nc(-c4cccc(C#N)c4)ccc3=O)c2)CC1 [A107, 3-(4-Methylpiperazin-1-yl)propyl {3-[3-(3-cyanophenyl)-6-oxo-6H-pyridazin-1-ylmethyl]phenyl}carbamate]
CCN(CC)CCCOC(=O)Nc1cccc(Cn2nc(-c3cc(F)cc(F)c3)ccc2=O)c1 [A109, 3-Diethylaminopropyl {3-[3-(3,5-difluorophenyl)-6-oxo-6H-pyridazin-1-ylmethyl]phenyl}carbamate]
CN(C)CCCCOC(=O)Nc1cccc(Cn2nc(-c3cc(F)cc(F)c3)ccc2=O)c1 [A110, 4-Dimethylaminobutyl {3-[3-(3,5-difluorophenyl)-6-oxo-6H-pyridazin-1-ylmethyl]phenyl}carbamate]
O=c1[nH]c2ccc(Cn3nc(-c4cccc(F)c4)ccc3=O)cc2[nH]1 [A127, 5-[3-(3-fluorophenyl)-6-oxo-6H-pyridazin-1-ylmethyl]-1,3-dihydrobenzimidazol-2-one]
CNCCCOC(=O)Nc1cccc(Cn2nc(-c3cc(F)cc(F)c3)ccc2=O)c1 [A142, 3-methylaminopropyl {3-[3-(3,5-difluorophenyl)-6-oxo-6H-pyridazin-1-ylmethyl]phenyl}carbamate]
O=C(Nc1cccc(Cn2nc(-c3cc(F)cc(F)c3)ccc2=O)c1)OCCN1CCNCC1 [A143, 2-Piperazin-1-ylethyl {3-[3-(3,5-difluorophenyl)-6-oxo-6H-pyridazin-1-ylmethyl]phenyl}carbamate]
O=C(Nc1cccc(Cn2nc(-c3cc(F)cc(F)c3)ccc2=O)c1)OCCCN1CCNCC1 [A145, 3-Piperazin-1-ylpropyl {3-[3-(3,5-difluorophenyl)-6-oxo-6H-pyridazin-1-ylmethyl]phenyl}carbamate]
CNCCCCOC(=O)Nc1cccc(Cn2nc(-c3cc(F)cc(F)c3)ccc2=O)c1 [A155, 4-Methylaminobutyl {3-[3-(3,5-difluorophenyl)-6-oxo-6H-pyridazin-1-ylmethyl]phenyl}carbamate]
O=C(Nc1cccc(Cn2nc(-c3cc(F)cc(F)c3)ccc2=O)c1)OCC1CCNCC1 [A156, Piperidin-4-ylmethyl {3-[3-(3,5-difluorophenyl)-6-oxo-6H-pyridazin-1-ylmethyl]phenyl}carbamate]
O=c1ccc(-c2cc(F)cc(F)c2)nn1Cc1ccc2[nH]ncc2c1 [A161, 6-(3,5-difluorophenyl)-2-(1H-indazol-5-ylmethyl)-2H-pyridazin-3-one]
O=c1[nH]c2ccc(Cn3nc(-c4cc(F)cc(F)c4)ccc3=O)cc2[nH]1 [A169, 5-[3-(3,5-Difluorophenyl)-6-oxo-6H-pyridazin-1-ylmethyl]-1,3-dihydrobenzimidazol-2-one]
